These results are taken from PubChem BioAssay (NCI).

Common to all, as to assay: DTP human tumour cell line panel, 48 h
In assay [1] the test system is OVCAR-3 ovarian.
In assay [2] the test system is HL-60(TB) leukemia.
Assay [3] deals with CCRF-CEM leukemia.
For assay [4], the system named is NCI/ADR-RES ovarian.
The subject of assay [5] is HOP-92 NSCLC.
Assay [6] concerns SF-268 CNS.
In assay [7] the test system is SNB-19 CNS.
The test system of assay [8] is 786-0 renal.
Assay [9] relates to MOLT-4 leukemia.
The test system of assay [10] is UO-31 renal.

Where “and” joins values, the source holds several entries; their conditions need not be identical. Identical values can stand only once.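 1) Cells in 96-well plates. 2) Compound, 48 h, 5 concentrations. 3) Linear interpolation between surrounding doses. 4) Unreached endpoint = highest concentration. GI50 marks 50% less growth. The concentration for full growth arrest is given as TGI.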

For `COc1cc2c(cc1OCCCCNC(=O)c1cc3ccccc3[nH]1)N=CC1CCCN1C2=O` (stereo not given), the GI50 (commonly the concentration at which growth is held to half of that of the control) in [1] was 8.59 µM; in [2], 7.97 µM; in [3], 3.45 µM; in [4] it was 20.9 µM; in [5], 12.2 µM; in assay [6], 4.4 µM. In addition, the GI50 in assay [7] was 20.2 µM; in assay [8], 33.5 µM; in assay [9], 8.72 µM; in assay [10] it was 7.16 µM. Moreover, the TGI (usually the concentration at which net growth stops) was over 100 µM in assay [1]; over 100 µM in [2]; over 100 µM in assay [3]; over 100 µM in assay [4]; 75.4 µM in [5]; 28 µM in [6]. Also, the concentration for total growth inhibition (TGI) in assay [7] was over 100 µM; in [8], over 100 µM; in assay [9], over 100 µM; in assay [10] it was 74.1 µM.
For `COc1ccc2c(c1)C(=O)c1c-2n(CCCN=[N+]=[N-])c(=O)c2ccccc12`, the GI50 was 52.4 µM in assay [1]; 54.1 µM in assay [2]; 10.1 µM in assay [3]; 91.2 µM in assay [4]; 50.7 µM in [5]; 39.8 µM in assay [6]. For the same compound, the GI50 in assay [7] was 17.6 µM; in [8], 27.9 µM; in assay [9], 4.38 µM; in assay [10] it was 43.4 µM. In addition, the TGI in [1], in [2], in assay [3], in assay [4], in [5] and in assay [6] was over 100 µM throughout. Moreover, the TGI in assay [7], in [8], in assay [9] and in [10] was over 100 µM each time.
Regarding `O=C1NC(=NCc2cccs2)SC1Cc1ccc2ncccc2c1` (stereo not given), the GI50 in [1] was 13 µM; in assay [2], 11.8 µM; in [3], 11.7 µM; in assay [4], over 25 µM; in [5], 10.3 µM; in [6], over 23 µM. Further, the GI50 in assay [7] is over 25 µM; in [8], over 24.1 µM; in [9], 14.5 µM; in [10], over 23.6 µM. Moreover, the TGI in [1], in [2], in assay [3], in [4], in assay [5] and in [6] was over 25 µM throughout. The TGI in assay [7], in assay [8], in assay [9] and in assay [10] was over 25 µM in each case.
`O=C1NC(=NCC(CO)c2ccccc2)S/C1=C\c1ccc2ncccc2c1` (stereo not given): the GI50 in [1] is 13.8 µM; in [2], 8.34 µM; in assay [3], 19.5 µM; in assay [4], over 25 µM; in assay [5], over 25 µM; in assay [6] it was over 16.9 µM. The GI50 in assay [7], in [8], in assay [9] and in assay [10] was over 25 µM throughout. The concentration for total growth inhibition (TGI) in assay [1], in assay [2], in assay [3], in [4], in assay [5] and in assay [6] was over 25 µM each time. Further, the TGI in [7], in assay [8], in [9] and in assay [10] was over 25 µM throughout.
For `CCOc1ccc(Cc2nccc3cc(OCC)c(OCC)cc23)cc1OCC`, the GI50 in assay [1] was 10.5 µM; in [2] it was 3.17 µM; in [3] it was 8.45 µM; in assay [4], 4.87 µM; in assay [5] it was 0.29 µM; in assay [6] it was 11.3 µM. Also, the GI50 in assay [7] was 10.7 µM; in assay [8] it was 9.57 µM; in assay [9], 5.83 µM; in assay [10] it was 2.87 µM. Besides, the TGI in assay [1] turned out to be 23.6 µM; in assay [2] it was 18.2 µM; in assay [3], 65.1 µM; in [4], 39.6 µM; in assay [5] it was 8.94 µM; in assay [6], 36.7 µM. Also, the TGI in [7] was 31.8 µM; in assay [8] it was 40.4 µM; in [9], 34.2 µM; in assay [10], 32.4 µM.
For `COC1=C(OC)C(=O)C(/C=C(\C)C(=O)O)=C(C)C1=O`, the GI50 was over 100 µM in assay [1]; over 100 µM in assay [2]; 67 µM in assay [3]; over 100 µM in [4]; over 100 µM in assay [5]; over 100 µM in assay [6]. Besides, the GI50 in assay [7], in assay [8], in [9] and in assay [10] was over 100 µM throughout. For the same compound, the TGI in assay [1], in assay [2], in [3], in [4], in [5] and in assay [6] was over 100 µM each time. Moreover, the TGI in assay [7], in [8], in assay [9] and in assay [10] was over 100 µM in each case.
For the compound `Oc1nc(NCCc2ccccc2)sc1/C=C1\C=Nc2ncccc21`, the GI50 in assay [1] is 2.16 µM and 2.06 µM; in assay [2], 2.34 µM and 2.14 µM; in assay [3] it was 3.31 µM and 2.42 µM; in [4] it was 12.2 µM and 8.3 µM; in [5], 1.3 µM and 1.43 µM; in assay [6] it was 2.72 µM and 2.63 µM. In addition, the GI50 was 2.47 µM and 2.82 µM in [7]; 3.03 µM and 3.02 µM in assay [8]; 3.17 µM and 2.77 µM in [9]; 3.53 µM and 3.83 µM in assay [10]. Further, the TGI in [1] is 9.39 µM and 7.33 µM; in [2], 6.48 µM and 6.88 µM; in assay [3] it was 13.9 µM and 7.8 µM; in assay [4] it was 50 µM and > 100 µM; in [5], 8.82 µM and 7.62 µM; in assay [6], 9.07 µM and 8.87 µM. In addition, the TGI in assay [7] is 11.2 µM and 18.7 µM; in assay [8] it was 11.2 µM and 9.85 µM; in assay [9], 11.6 µM and 11 µM; in assay [10], 12.4 µM and 84.6 µM.
